# Laboratory results from patent US5817689A, “Indole derivatives having a 2-phenyl-ethanolamino-substituted lower alkyl group at the 2-or 3-position thereof” (priority 1994, dated 1998).
# Tests used:
# [1] = biological target: T1, human β2 -adrenergic receptor (Homo sapiens, UniProt P07550); assay: Human β2-adrenergic receptor-stimulating activity (cAMP accumulation in CHO/pKREX21-8 cells); type: cell-based
# T1 construct: expressed in transfected cells; host or cells: CHO-K1, clone CHO/pKREX21-8
# T1 sequence (P07550 whole entry): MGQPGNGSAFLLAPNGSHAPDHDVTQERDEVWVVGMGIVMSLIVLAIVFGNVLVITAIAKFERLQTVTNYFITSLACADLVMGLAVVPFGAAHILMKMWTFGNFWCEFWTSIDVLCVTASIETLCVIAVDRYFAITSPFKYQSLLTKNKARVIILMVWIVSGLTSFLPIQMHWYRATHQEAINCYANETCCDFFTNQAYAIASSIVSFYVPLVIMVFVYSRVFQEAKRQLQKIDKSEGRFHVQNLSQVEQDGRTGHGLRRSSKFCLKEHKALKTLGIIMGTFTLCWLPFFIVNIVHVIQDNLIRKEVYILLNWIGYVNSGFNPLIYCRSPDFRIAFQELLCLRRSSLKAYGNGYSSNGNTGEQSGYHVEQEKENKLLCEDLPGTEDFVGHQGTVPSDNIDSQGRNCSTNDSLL
# Text: cDNA was synthesized with Poly(A)^+ RNA derived from human brain (Clontech: trade number; CL6516-1) by using SuperScript Systems (Life Technologies).
# After the reaction mixture was digested with restriction endonucleases Sse8387I and HindIII, about 1.4 kbp fragment was isolated by electrophoresis. This fragment was ligated with expression vector pKCN1 digested with restriction endonucleases Sse8387I and HindIII, and was introduced into E. coli HB101 in a conventional manner. Plasmid DNA was prepared from the selected transformant, and the nucleotide sequence of the about 1.4 kbp fragment obtained by digestion of this plasmid DNA with restriction endonucleases Sse8387I and HindIII was determined. […] This plasmid was named as pKREX21 for highly expressing human β2 -adrenergic receptor, and was introduced into CHO-K1 in the same manner as the method of establishment of the cell line highly expressing human β3 -adrenergic receptor.
# (§1) Experiment 1 Human β-adrenergic receptor-stimulating activity:
# (§2) The cells were peeled off by incubation with phosphate-buffered saline containing 0.5 mM EDTA at 37° C. for 10 minutes after the medium was removed. The CHO/pKREX10-36 cells were collected by centrifugation, and suspended in Hanks' balanced salts (ICN Biomedicals) containing 1 mM L-ascorbic acid and 1 mM 3-isobutyl-1-methylxanthine at the concentration of about 2×10^6cells/ml. This suspension (100μl) and a test compound were mixed in the same balanced salt (500 μl) and incubated at 37° C. for 30 minutes, followed by boiling for 5 minutes to terminate the reaction. After centrifugation of the reaction mixture, the amount of cAMP in the supernatant was measured by using cAMP EIA System (Amersham).
# Similarly, the amount of cAMP was measured by using CHO/pKREX21-8 for highly expressing human β2 -adrenergic receptor instead of the CHO/pKREX10-36 for highly expressing human β3 -adrenergic receptor.
# [2] = tested on: glucose level in the blood; assay: Blood glucose reducing activity on fasted mouse; type: in vivo, ddY male mouse; settings: po, 3 h, read-out: Blood glucose reducing activity (ED25)
# Protocol: Experiment 2 Blood glucose reducing activity on fasted mouse:
# A test compound suspended in 0.5% tragacanth solution was orally administered to a ddY male mouse (weight: 20-30 g) under being fasted, and the blood was collected before and at three hours after the administration of the test compound. The glucose level in the blood was determined by the method of Kunst A., et al. (Hexokinase/G6PDH method) [Bergmeyer, H. U. (eds.), […], vol. VI, 3rd edition, Verlag Chemie GmbH, Weinheim·Deerfield Beach, Florida·Basel, 163-172 (1984)]. The blood glucose reducing activity of the test compound was expressed by ED25 value which is a concentration of the test compound required to reduce the glucose level in blood before the administration of the test compound by 25%. Gliclazide was used as a reference compound which is a commercially available drug for treatment of diabetes mellitus.
# [3] = Acute toxicity experiment using mice; type: in vivo; settings: oral administration at a dose of 300 mg/kg
# Text: Thus, when taking into consideration the therapeutically effective dose, the compounds of the present invention have no problem in safety to living body.
# [4] = biological target: T2, human β3 -adrenergic receptor (Homo sapiens, UniProt P13945); assay: Human β3-adrenergic receptor-stimulating activity (cAMP accumulation in CHO/pKREX10-36 cells); type: cell-based
# T2 construct: expressed in transfected cells; host or cells: CHO-K1 (ATCC CCL 61), clone CHO/pKREX10-36
# T2 sequence (P13945 whole entry): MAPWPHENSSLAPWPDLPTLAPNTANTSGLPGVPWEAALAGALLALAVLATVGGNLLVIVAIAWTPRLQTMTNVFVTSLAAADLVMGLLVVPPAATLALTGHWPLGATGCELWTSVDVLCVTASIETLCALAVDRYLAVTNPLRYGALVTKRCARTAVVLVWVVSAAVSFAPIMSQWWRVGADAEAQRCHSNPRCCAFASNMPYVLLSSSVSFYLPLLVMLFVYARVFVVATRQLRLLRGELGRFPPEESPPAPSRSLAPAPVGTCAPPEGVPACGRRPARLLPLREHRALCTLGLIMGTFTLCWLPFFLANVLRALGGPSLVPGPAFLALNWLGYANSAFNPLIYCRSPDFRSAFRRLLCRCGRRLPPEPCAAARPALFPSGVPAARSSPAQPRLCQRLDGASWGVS
# Protocol: Establishment of the cell line highly expressing human β3 -adrenergic receptor
# Separately, another expression vector for animal cells, pSV2-neo [Southern and Berg, J. Mol. Appl. Genet. […] These DNAs were ligated with DNA Ligation Kit (Takara Shuzo Co., Ltd.) and were introduced into E. coli HB101 in a conventional manner to give the transformants. Plasmid DNAs were prepared from the transformants and digested with a restriction endonuclease PstI. A clone which produced about 3.8 kbp, 2.2 kbp, 1.4 kbp, and 0.9 kbp fragments was selected to give a plasmid named pKCN0.
# The reaction mixture was used for transformation of E. coli HB101 and plasmid DNAs were prepared from the selected transformants. The plasmid DNAs were digested with restriction endonucleases DraI and HindIII, and a clone which produced about 430 bp fragment was selected to give a plasmid named pKCN1 for expression vector.
# 10% Dimethyl sulfoxide was added to the reaction mixture at the PCR reaction.
# After the reaction mixture was digested with restriction endonucleases Sse8387I and StuI, about 1.3 kbp fragment was isolated by electrophoresis. This fragment was ligated with expression vector pKCN1 which was digested with restriction endonucleases Sse8387I and EcoRV, and the resultant was introduced into E. coli HB101 in a conventional manner. Plasmid DNA was prepared from the selected transformant and the nucleotide sequence of the about 1.3 kbp fragment obtained by digestion of the plasmid DNA with restriction endonucleases Sse8387I and XhoI was determined. […] This plasmid for expressing human β3 -adrenergic receptor was named as pKREX10.
# The reaction mixture was filtered with glass filter GF/C (Whatman) presoaked with 0.3% polyethyleneimine and washed by using BIO-DOT apparatus (Bio-Rad Laboratories), and the radioactivity on the filter was counted by γ-ray counter. […] Establishment of the cell line highly expressing human β2 -adrenergic receptor
# as §1, §2
structure (smiles),measurement,setting,value
"COc1cccc2c(CC(C)NC[C@H](O)c3cccc(Cl)c3)c[nH]c12 (stereo partly drawn) [Example 1-A, 2-[3-(7-methoxyindol-3-yl)-2-propylamino]-(1R)-1-(3-chlorophenyl)ethanol]",EC50,[1],13 nM
same,Emax,[1]; read-out: I.A. value β2 -receptor,36%
same,ED25,[2],3 µg/kg
same,acute toxicity,[3],no toxicity at all
same,EC50,"[4]; 50% of cAMP accumulation, CHO/pKREX10-36, 37° C., 30 minutes, read-out: EC50 value β3 -receptor",0.67 nM
same,Emax,[4]; read-out: I.A. value β3 -receptor,114%
